Measured values as given in patent US20240115536A1, “DUAL-ACTING PHARMACEUTICAL COMPOSITIONS BASED ON SUPERSTRUCTURES OF ANGIOTENSIN RECEPTOR ANTAGONIST/BLOCKER (ARB) AND NEUTRAL ENDOPEPTIDASE (NEP) INHIBITOR” (Novartis AG, priority 2007, published 2024).
Like-named read-outs stand apart in the source and are kept apart here.

Legend:
[1] = Dissolution testing, USP paddle method, pH 6.8 phosphate buffer, 50 rpm; format: physicochemical
Protocol: The term “dissolution” as used herein refers to a process by which a solid substance, here the active ingredients, is dispersed in molecular form in a medium. The dissolution rate of the active ingredients of the pharmaceutical oral fixed dose combination of the invention is defined by the amount of drug substance that goes in solution per unit time under standardized conditions of liquid/solid interface, temperature and solvent composition. The dissolution rate is measured by standard methods known to the person skilled in the art, see the harmonized procedure set forth in the pharmacopeias USP <711> and EP 2.9.3 and JP. For the purposes of this invention, the test is for measuring the dissolution of the individual active ingredients is performed following pharmacopeia USP <711> at pH 6.8 using a paddle stirring element at 50 rpm (rotations per minute) or alternatively at pH 4.5 using a paddle stirring element at 75 rpm as specified. The dissolution medium is preferably a buffer, typically a phosphate buffer, especially one as described in the example “Dissolution Test”.
The tablets of the Examples are tested for their dissolution in 900 ml of pH 6.8 phosphate buffer with paddles at 50 rpm.
The assembly consists of the following: a covered vessel made of glass or other inert, transparent material; a motor, and a paddle formed from a blade and shaft as the stirring element. The vessel is partially immersed in a suitable water bath of any convenient size or placed in a heating jacket. The water bath or heating jacket permits holding the temperature inside the vessels at 37±0.5° during the test and keeping the bath fluid in constant, smooth motion. No part of the assembly, including the environment in which the assembly is placed, contributes significant motion, agitation, or vibration beyond that due to the smoothly rotating stirring element. Apparatus that permits observation of the specimen and stirring element during the test is has the following dimensions and capacities: the height is 160 mm to 210 mm and its inside diameter is 98 mm to 106 mm. Its sides are flanged at the top. A fitted cover may be used to retard evaporation. The shaft is positioned so that its axis is not more than 2 mm at any point from the vertical axis of the vessel and rotates smoothly without significant wobble. The vertical center line of the blade passes through the axis of the shaft so that the bottom of the blade is flush with the bottom of the shaft. The design of the paddle is as shown in USP <711>, FIG. 2. The distance of 25±2 mm between the blade and the inside bottom of the vessel is maintained during the test. The metallic or suitably inert, rigid blade and shaft comprise a single entity. A suitable two-part detachable design may be used provided the assembly remains firmly engaged during the test. The paddle blade and shaft may be coated with a suitable inert coating. The dosage unit is allowed to sink to the bottom of the vessel before rotation of the blade is started. A small, loose piece of nonreactive material such as not more than a few turns of wire helix may be attached to dosage units that would otherwise float. Other validated sinker devices may be used.
1L of a buffered aqueous solution, adjusted to pH 6.8±0.05 (0.05 M Phosphate buffer solution obtained by dissolving 6.805 g of potassium dihydrogen phosphate and 0.896 g of sodium hydroxide in and diluting to 1000 ml with water, and adjusting the pH to 6.80±0.05 using 0.2 M sodium hydroxide or 1 M phosphoric acid; referred hereinafter as “Dissolution Medium”) is placed in the vessel of the apparatus, the apparatus is assembled, the Dissolution Medium is equilibrated to 37±0.5°, and the thermometer is removed. 1 dosage form (e.g. tablet or capsule) is placed on the apparatus, taking care to exclude air bubbles from the surface of the dosage-form unit, and immediately the apparatus is operated at a rate of 50+2 rpm. […]

[2] = for AUC0-24 for valsartan / Cmax for valsartan / t1/2 for valsartan / tmax for valsartan: healthy volunteers
[3] = Measurement of pharmacokinetic parameters, ascending single dose 5, 20, 80 mg LCZ696 vs 40 mg Diovan
Protocol: The study employs a two-period, parallel group, ascending single dose (5, 20, 80 mg of LCZ696 and 40 mg Diovan® (marketed formulation of valsartan), placebo controlled design with dose selection based on FDA exploratory-IND guidance. The dosages of LCZ696 are obtained by using the 5 mg and 50 mg tablets as manufactured above and employing for the 20 mg and 80 mg dose multiple tablets of 5 mg and/or 50 mg strength.
To enable comparison of the exposure to valsartan between LCZ696 and Diovan® at different dose levels, valsartan's exposure (AUC) and Cmax values are normalized to the actual amount of anhydrous salt-free- valsartan administered (normalized by mg-equivalent). The AUC0-24 values are calculated as ng·h/ml/mg-equivalent of valsartan, and the geometric means are compared.

[4] = Cohort A (5 mg LCZ696; 40 mg Diovan)
[5] = Cohort B (20 mg LCZ696; 40 mg Diovan)
[6] = Cohort C (80 mg LCZ696; 40 mg Diovan)
[7] = Combined Cohorts A-B-C (pooled data)
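For AUC0-24 for valsartan in this document: randomized double-blind placebo-controlled parallel-group study with ascending single doses and 14-day daily dosing cohorts, pharmacokinetics measured in healthy volunteers.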
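For Cmax for valsartan in this document: randomized double-blind placebo-controlled parallel-group study with ascending single doses and 14-day daily dosing cohorts, pharmacokinetics measured in healthy volunteers.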
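For accumulation of all analytes in this document: randomized double-blind placebo-controlled parallel-group study with ascending single doses and 14-day daily dosing cohorts, pharmacokinetics measured in healthy volunteers.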
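For t1/2 for valsartan in this document: randomized double-blind placebo-controlled parallel-group study with ascending single doses and 14-day daily dosing cohorts, pharmacokinetics measured in healthy volunteers.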

## CCCCC(=O)N(Cc1ccc(-c2ccccc2-c2nn[n-]n2)cc1)[C@H](C(=O)[O-])C(C)C.CCOC(=O)[C@H](C)C[C@@H](Cc1ccc(-c2ccccc2)cc1)NC(=O)CCC(=O)[O-].[Na+].[Na+].[Na+] [LCZ696, trisodium [3-((1S,3R)-1-biphenyl-4-ylmethyl-3-ethoxycarbonyl-1-butylcarbamoyl) propionate-(S)-3′-methyl-2′-(pentanoyl{2″-(tetrazol-5-ylate)biphenyl-4′-ylmethyl}amino)butyrate]hemipentahydrate]
[1]; about 100 mg per unit dosage form, after 10 min
  mean valsartan free acid released: about 50%
[1]; about 100 mg per unit dosage form, after 20 min
  mean valsartan free acid released: about 85%
[1]; about 100 mg per unit dosage form, after 30 min
  mean valsartan free acid released: about 95%
[1]; about 200 mg per unit dosage form, after 10 min
  mean valsartan free acid released: about 50%
[1]; about 200 mg per unit dosage form, after 20 min
  mean valsartan free acid released: about 85%
[1]; about 200 mg per unit dosage form, after 30 min
  mean valsartan free acid released: about 95%
[1]; about 400 mg per unit dosage form, after 10 min
  mean valsartan free acid released: about 40%
[1]; about 400 mg per unit dosage form, after 20 min
  mean valsartan free acid released: about 70%
[1]; about 400 mg per unit dosage form, after 30 min
  mean valsartan free acid released: about 90%
[2]; 50 mg daily for 14 days
  AUC0-24 for valsartan: 6935 ng·h/mL
  Cmax for valsartan: 1233 ng/mL
  t1/2 for valsartan: 15.2 h
  tmax for valsartan: 1.6 h
[2]; 200 mg daily for 14 days
  AUC0-24 for valsartan: 21079 ng·h/mL
  Cmax for valsartan: 3990 ng/mL
  t1/2 for valsartan: 22.1 h
  tmax for valsartan: 1.8 h
[2]; 600 mg daily for 14 days
  AUC0-24 for valsartan: 58876 ng·h/mL
  Cmax for valsartan: 8563 ng/mL
  t1/2 for valsartan: 22.6 h
  tmax for valsartan: 2.2 h
[2]; 900 mg daily for 14 days
  AUC0-24 for valsartan: 54920 ng·h/mL
  Cmax for valsartan: 8960 ng/mL
  t1/2 for valsartan: 15.0 h
  tmax for valsartan: 4.9 h
[2]; 50-900 mg LCZ696 once daily for 14 days
  accumulation of all analytes: Minimal accumulation
[2]; single dose 200 mg
  AUC0-24 for valsartan: 16970 ng·h/mL
  Cmax for valsartan: 3309 ng/mL
  t1/2 for valsartan: 11.7 h
  tmax for valsartan: 1.7 h
[2]; single dose 600 mg
  AUC0-24 for valsartan: 40645 ng·h/mL
  Cmax for valsartan: 7269 ng/mL
  t1/2 for valsartan: 16.6 h
  tmax for valsartan: 1.9 h
[2]; single dose 900 mg
  AUC0-24 for valsartan: 53568 ng·h/mL
  Cmax for valsartan: 8374 ng/mL
  t1/2 for valsartan: 14.9 h
  tmax for valsartan: 2.2 h
[2]; single dose 1200 mg
  AUC0-24 for valsartan: 60118 ng·h/mL
  Cmax for valsartan: 7448 ng/mL
  t1/2 for valsartan: 8.9 h
  tmax for valsartan: 2.2 h
[3]; 5, 20, 80 mg LCZ696 single dose
  dose linearity of valsartan exposures: dose linear
[3]; [4]
  AUC0-24, dose-normalized, geometric mean, valsartan: 364 ng * h/ml/mg-equivalent
  AUC0-24 ratio LCZ696/Diovan: 1.81
  AUC0-inf ratio LCZ696/Diovan: 1.81
  AUC0-inf, dose-normalized, geometric mean, valsartan: 372 ng * h/ml/mg-equivalent
  Cmax ratio LCZ696/Diovan: 2.09
  Cmax, dose-normalized, geometric mean, valsartan: 56 ng/ml/mg-equivalent
[3]; [5]
  AUC0-24, dose-normalized, geometric mean, valsartan: 280 ng * h/ml/mg-equivalent
  AUC0-24 ratio LCZ696/Diovan: 1.38
  AUC0-inf ratio LCZ696/Diovan: 1.38
  AUC0-inf, dose-normalized, geometric mean, valsartan: 284 ng * h/ml/mg-equivalent
  Cmax ratio LCZ696/Diovan: 1.69
  Cmax, dose-normalized, geometric mean, valsartan: 44 ng/ml/mg-equivalent
[3]; [6]
  AUC0-24, dose-normalized, geometric mean, valsartan: 244 ng * h/ml/mg-equivalent
  AUC0-24 ratio LCZ696/Diovan: 1.67
  AUC0-inf ratio LCZ696/Diovan: 1.64
  AUC0-inf, dose-normalized, geometric mean, valsartan: 245 ng * h/ml/mg-equivalent
  Cmax ratio LCZ696/Diovan: 2.1
  Cmax, dose-normalized, geometric mean, valsartan: 43 ng/ml/mg-equivalent
[3]; [7]
  AUC0-24, dose-normalized, geometric mean, valsartan: 292 ng * h/ml/mg-equivalent
  AUC0-24 ratio LCZ696/Diovan: 1.61
  AUC0-inf ratio LCZ696/Diovan: 1.6
  AUC0-inf, dose-normalized, geometric mean, valsartan: 296 ng * h/ml/mg-equivalent
  Cmax ratio LCZ696/Diovan: 1.95
  Cmax, dose-normalized, geometric mean, valsartan: 47 ng/ml/mg-equivalent
[3]; oral administration
  tmax of valsartan free acid: 1.8 ± 0.3 h
[3]; oral, analyte valsartan free acid, listed as therapeutic agent
  enhanced oral bioavailability of valsartan free acid versus Diovan formulation: 1.6 fold
[3]; single dose, range of cohort means
  tmax for valsartan (mean): 1.3 to 1.8 h
[3]; valsartan, dose-equivalent normalized, pooled cohorts
  ratio of geometric means for AUC, LCZ696/Diovan: 161%
